# Source: patent US6706663B2, “Herbicidal 3-heterocyclic substituted benzisothiazole and benzisoxazole compounds” (Wyeth, priority 2000, dated 2004)
# Assays:
# [1] = system: MOOVA (Monochoria vaginalis); assay: Flooded paddy, preemergence weed control; type: in vivo, Presl.; settings: rated 3-4 weeks after treatment, 0-9 rating scale
# Method in brief: (§1)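 In this preemergence paddy assay, weed seeds or organs are sown at up to 0.5 cm in silt loam and covered by 1.5–3 cm of water for the full test period. After treatment the pots are kept in a greenhouse, and herbicidal effect is rated 0-9 visually against a control.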
# [2] = system: IPOHE (Ipomoea hederacea); assay: Preemergence herbicidal evaluation; type: in vivo, (L.) Jacq.; settings: rated 4-5 weeks after treatment
# [3] = system: ZEAMX (Corn, Field); assay: Postemergence herbicidal evaluation; type: in vivo, Zea mays, L.
# Method in brief: (§2)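 Seedlings grown for about two weeks were sprayed postemergence and then kept under standard greenhouse care. Injury was rated visually 4–5 weeks after treatment on a 0–9 scale against untreated controls, and ratings from repeat tests were averaged.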
# [4] = system: ECHCG (Echinochloa crus-galli); assay: Preemergence herbicidal evaluation; type: in vivo, (L.) Beau; settings: rated 4-5 weeks after treatment
# Method in brief: (§3)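 Test compound is applied in aqueous acetone to cups just after seeding. Cups are watered and maintained on greenhouse benches. Each cup is scored 0–9 by eye relative to a control after four to five weeks.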
# [5] = system: SETVI (Setaria viridis); assay: Preemergence herbicidal evaluation; type: in vivo, (L.) Beau; settings: rated 4-5 weeks after treatment
# Method in brief: as §3
# [6] = system: GALAP (Galium aparine); assay: Postemergence herbicidal evaluation; type: in vivo
# Method in brief: as §2
# [7] = system: CHEAL (Chenopodium album); assay: Preemergence herbicidal evaluation; type: in vivo, L.; settings: rated 4-5 weeks after treatment
# Method in brief: as §3
# [8] = system: CASOB (Cassia obtusifolia); assay: Preemergence herbicidal evaluation; type: in vivo, L.; settings: rated 4-5 weeks after treatment
# Method in brief: as §3
# [9] = system: AMBEL (Ambrosia artemisifolia); assay: Preemergence herbicidal evaluation; type: in vivo, L.; settings: rated 4-5 weeks after treatment
# Method in brief: as §3
# [10] = system: ABUTH (Abutilon theophrasti); assay: Postemergence herbicidal evaluation; type: in vivo, Medic.
# Method in brief: as §2
# [11] = system: IPOHE (Ipomoea hederacea); assay: Postemergence herbicidal evaluation; type: in vivo, (L.) Jacq.
# Method in brief: as §2
# [12] = system: SETVI (Setaria viridis); assay: Postemergence herbicidal evaluation; type: in vivo, (L.) Beau
# Method in brief: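 Seedlings grown about two weeks were sprayed with compound in 50/50 acetone/water containing 0.5% TWEEN 20, at about 0.0040 to 1.000 kg/ha via nozzle at 40 psi. Plants were kept under greenhouse conditions and visually rated on a 0-9 scale versus control four to five weeks after treatment; replicate tests averaged.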
# [13] = system: ECHORC (Echinochloa oryzoides); assay: Flooded paddy, preemergence weed control; type: in vivo, Echinochloa oryzoides (Ard.) Fritsch.; settings: rated 3-4 weeks after treatment, 0-9 rating scale
# Method in brief: as §1
# [14] = system: ORYSAT (Rice, Tebonnet); assay: Flooded paddy, post-transplant rice tolerance; type: in vivo, Oryza sativa, (L.) Tebonnet; settings: flooded paddy, post-transplant rice, rated 3-4 weeks after treatment, 0-9 rating scale
# Method in brief: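 Seedlings aged ten days are transplanted in pairs into undrained pots of silt loam, which are then flooded to a depth of 1.5 to 3 cm. After herbicide application the pots are kept in a greenhouse with the flood maintained. Plants are rated 0-9 by visual comparison with controls.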
# [15] = system: SAGPY (Sagittaria pygmaea); assay: Flooded paddy, preemergence weed control; type: in vivo, L.; settings: rated 3-4 weeks after treatment, 0-9 rating scale
# Method in brief: as §1
# [16] = system: ORYSAT (Rice, Tebonnet); assay: Postemergence herbicidal evaluation; type: in vivo, Oryza sativa, (L.) Tebonnet
# Method in brief: as §2
# [17] = system: GLXMAW (Soybean, Williams); assay: Postemergence herbicidal evaluation; type: in vivo, Glycine max, (L.) Merr. cv Williams
# Method in brief: as §2
# [18] = system: CYPIR (Cyperus iria); assay: Flooded paddy, preemergence weed control; type: in vivo; settings: rated 3-4 weeks after treatment, 0-9 rating scale
# Method in brief: as §1
# [19] = system: ECHCG (Echinochloa crus-galli); assay: Postemergence herbicidal evaluation; type: in vivo, (L.) Beau
# Method in brief: as §2
# [20] = system: ORYSAT (Rice, Tebonnet); assay: Preemergence herbicidal evaluation; type: in vivo, Oryza sativa, (L.) Tebonnet; settings: rated 4-5 weeks after treatment
smiles,measurement,setting,value
"Cc1ccc(-c2nsc3ccc(-n4c(=O)cc(C(F)(F)F)n(C)c4=O)cc23)nc1 [Compound 42, 1-methyl-3-[3-(5-methyl-2-pyridyl)-1,2-benzisothiazol-5-yl]-6-(trifluoromethyl)uracil]","herbicidal rating, MOOVA",[1]; rate 0.0320 kg/ha,8.0
same,"herbicidal rating, MOOVA",[1]; rate 0.1250 kg/ha,9.0
same,Preemergence herbicidal rating IPOHE,[2]; Rate 0.0620 kg/ha,1.0
same,Preemergence herbicidal rating IPOHE,[2]; Rate 0.1250 kg/ha,2.0
same,Preemergence herbicidal rating IPOHE,[2]; Rate 0.2500 kg/ha,4.5
same,"Postemergence herbicidal rating, ZEAMX",[3]; rate 0.0320 kg/ha,5.5
same,"Postemergence herbicidal rating, ZEAMX",[3]; rate 0.0620 kg/ha,5.5
same,"Postemergence herbicidal rating, ZEAMX",[3]; rate 0.1250 kg/ha,5.5
same,Preemergence herbicidal rating ECHCG,[4]; Rate 0.0620 kg/ha,1.0
same,Preemergence herbicidal rating ECHCG,[4]; Rate 0.1250 kg/ha,5.5
same,Preemergence herbicidal rating ECHCG,[4]; Rate 0.2500 kg/ha,8.5
same,Preemergence herbicidal rating SETVI,[5]; Rate 0.0620 kg/ha,5.0
same,Preemergence herbicidal rating SETVI,[5]; Rate 0.1250 kg/ha,7.5
same,Preemergence herbicidal rating SETVI,[5]; Rate 0.2500 kg/ha,9.0
same,"Postemergence herbicidal rating, GALAP",[6]; rate 0.0320 kg/ha,1.0
same,"Postemergence herbicidal rating, GALAP",[6]; rate 0.0620 kg/ha,3.0
same,"Postemergence herbicidal rating, GALAP",[6]; rate 0.1250 kg/ha,3.0
same,Preemergence herbicidal rating CHEAL,[7]; Rate 0.0620 kg/ha,9.0
same,Preemergence herbicidal rating CHEAL,[7]; Rate 0.1250 kg/ha,9.0
same,Preemergence herbicidal rating CHEAL,[7]; Rate 0.2500 kg/ha,9.0
same,Preemergence herbicidal rating CASOB,[8]; Rate 0.0620 kg/ha,0.5
same,Preemergence herbicidal rating CASOB,[8]; Rate 0.1250 kg/ha,0.5
same,Preemergence herbicidal rating CASOB,[8]; Rate 0.2500 kg/ha,0.0
same,Preemergence herbicidal rating AMBEL,[9]; Rate 0.0620 kg/ha,1.0
same,Preemergence herbicidal rating AMBEL,[9]; Rate 0.1250 kg/ha,4.5
same,Preemergence herbicidal rating AMBEL,[9]; Rate 0.2500 kg/ha,9.0
same,"Postemergence herbicidal rating, ABUTH",[10]; rate 0.0320 kg/ha,9.0
same,"Postemergence herbicidal rating, ABUTH",[10]; rate 0.0620 kg/ha,9.0
same,"Postemergence herbicidal rating, ABUTH",[10]; rate 0.1250 kg/ha,9.0
same,"Postemergence herbicidal rating, IPOHE",[11]; rate 0.0320 kg/ha,9.0
same,"Postemergence herbicidal rating, IPOHE",[11]; rate 0.0620 kg/ha,9.0
same,"Postemergence herbicidal rating, IPOHE",[11]; rate 0.1250 kg/ha,9.0
same,"Postemergence herbicidal rating, SETVI",[12]; rate 0.0320 kg/ha,5.0
same,"Postemergence herbicidal rating, SETVI",[12]; rate 0.0620 kg/ha,5.0
same,"Postemergence herbicidal rating, SETVI",[12]; rate 0.1250 kg/ha,9.0
same,"herbicidal rating, ECHORC",[13]; rate 0.0320 kg/ha,2.0
same,"herbicidal rating, ECHORC",[13]; rate 0.1250 kg/ha,6.0
same,"herbicidal rating, ORYSAT (rice tolerance)",[14]; rate 0.0320 kg/ha,3.0
same,"herbicidal rating, ORYSAT (rice tolerance)",[14]; rate 0.1250 kg/ha,4.0
same,"herbicidal rating, SAGPY",[15]; rate 0.0320 kg/ha,0.0
same,"herbicidal rating, SAGPY",[15]; rate 0.1250 kg/ha,3.0
same,"Postemergence herbicidal rating, ORYSAT",[16]; rate 0.0320 kg/ha,1.0
same,"Postemergence herbicidal rating, ORYSAT",[16]; rate 0.0620 kg/ha,1.5
same,"Postemergence herbicidal rating, ORYSAT",[16]; rate 0.1250 kg/ha,1.5
same,"Postemergence herbicidal rating, GLXMAW",[17]; rate 0.0320 kg/ha,6.0
same,"Postemergence herbicidal rating, GLXMAW",[17]; rate 0.0620 kg/ha,8.0
same,"Postemergence herbicidal rating, GLXMAW",[17]; rate 0.1250 kg/ha,8.0
same,"herbicidal rating, CYPIR",[18]; rate 0.0320 kg/ha,3.0
same,"herbicidal rating, CYPIR",[18]; rate 0.1250 kg/ha,6.0
same,"Postemergence herbicidal rating, ECHCG",[19]; rate 0.0320 kg/ha,1.0
same,"Postemergence herbicidal rating, ECHCG",[19]; rate 0.0620 kg/ha,1.0
same,"Postemergence herbicidal rating, ECHCG",[19]; rate 0.1250 kg/ha,3.0
same,Preemergence herbicidal rating ORYSAT,[20]; Rate 0.0620 kg/ha,0.0
same,Preemergence herbicidal rating ORYSAT,[20]; Rate 0.1250 kg/ha,3.5
same,Preemergence herbicidal rating ORYSAT,[20]; Rate 0.2500 kg/ha,5.0
